Key:
Male Balb/C mice = test: Model of lung eosinophilia in mice; format: in vivo; settings: OVA-sensitised and challenged mice, daily i.n. or i.p.; t-test, p<0.05
Experimental: Model of Lung Eosinophilia in Mice Male Balb/C mice with a body weight of 20-25 g were randomly divided into groups, and sensitised by an i.p. injection of ovalbumin (OVA, Sigma) on day zero and day fourteen. On the twentieth day, the mice were subjected to a challenge test by i.n. (intranasal) application of OVA (positive control or test groups) or PBS (negative control). 48 hours after i.n. application of OVA, the animals were anaesthetized and the lungs were rinsed with 1 mL of PBS. The cells were separated on Cytospin 3 cytocentrifuge (Shandon). The cells were stained in Diff-Quick (Dade) and the percentage of eosinophils was determined by differential counting of at least 100 cells. Fluticasone (GlaxoWellcome) and beclomethasone ([…].) were used as standard substances, with positive and negative control. The compounds were administered daily i.n. or i.p. in different doses 2 days before the challenge test and up to the completion of the test.

[1] = target: T1, alpha isoform of human glucocorticoid receptor (Homo sapiens, UniProt P04150); test: Assay of binding to human glucocorticoid receptor ([3H]dexamethasone displacement in transfected COS-1 cells); settings: 24 nM [3H]dexamethazone, COS-1 cells transfected with human GR alpha, 90 minutes at 37° C.
T1 construct: expressed in transfected cells; host or cells: COS-1 cells, transient transfection with pcDNA3.1 Hygro(+) carrying the GR alpha cDNA
T1 sequence (P04150 1-777): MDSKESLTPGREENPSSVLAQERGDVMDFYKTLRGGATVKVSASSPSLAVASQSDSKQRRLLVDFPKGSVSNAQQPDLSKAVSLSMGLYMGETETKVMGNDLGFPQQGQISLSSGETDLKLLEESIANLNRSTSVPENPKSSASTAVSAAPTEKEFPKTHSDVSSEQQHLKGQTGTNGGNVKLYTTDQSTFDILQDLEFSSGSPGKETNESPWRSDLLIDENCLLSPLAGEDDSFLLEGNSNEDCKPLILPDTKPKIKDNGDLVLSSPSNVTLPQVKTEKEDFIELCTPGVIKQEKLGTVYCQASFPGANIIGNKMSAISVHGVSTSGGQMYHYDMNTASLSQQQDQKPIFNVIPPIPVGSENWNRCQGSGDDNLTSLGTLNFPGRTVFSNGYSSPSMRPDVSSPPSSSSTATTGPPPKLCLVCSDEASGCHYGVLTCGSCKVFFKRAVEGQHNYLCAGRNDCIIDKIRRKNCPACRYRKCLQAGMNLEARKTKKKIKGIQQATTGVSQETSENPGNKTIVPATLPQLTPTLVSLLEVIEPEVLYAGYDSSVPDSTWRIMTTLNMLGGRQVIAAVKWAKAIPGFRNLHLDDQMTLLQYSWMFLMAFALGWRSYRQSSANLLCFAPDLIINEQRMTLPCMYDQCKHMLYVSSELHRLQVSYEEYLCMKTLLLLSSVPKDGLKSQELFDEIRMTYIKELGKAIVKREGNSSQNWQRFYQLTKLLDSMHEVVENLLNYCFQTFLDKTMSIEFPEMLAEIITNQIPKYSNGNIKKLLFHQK
Experimental: Assay of Binding to Human Glucocorticoid Receptor The gene for the alpha isoform of human glucocorticoid receptor was cloned by reverse polymerase chain reaction. The total RN A was isolated from human peripheral blood lymphocytes according to the instructions of the manufacturer (Qiagen), transcripted into cDNA with AMV reverse transcriptase (Roche) and the gene was multiplied by specific primers 1) [NT] ID NO:1] and 2) [NT] NO:1]. […] The medium was removed and 1 μg of DNA, 7 μl of PLUS reagent and 2 μl of Lipofectamin (Life Technologies) in 500 μl of DMEM were added per well. The cells were incubated at 37° C. in an atmosphere with 5% CO2 and after 5 hours the same volume of 20% FBS/DMEM was added. After 24 hours, the medium was completely changed. 48 hours after transfection, the test compounds in different concentrations and 24 nM [^3H]dexamethazone (Pharmacia) in DMEM medium were added. The cells were incubated for 90 minutes at 37° C. in an atmosphere with 5% CO2, washed three times with PBS buffer (Sigma) cooled to 4° C. (pH=7.4), and then lysed in Tris buffer (pH=8.0) (Sigma) with 0.2% of SDS (Sigma). After the addition of UltimaGold XR (Packard) scintillation liquid, the residual radioactivity was read in a Tricarb (Packard) β-scintillation counter.

Male Wistar rats = test: Cold stress model; format: in vivo; settings: standard 1 mg/kg once daily over three days, cold stress at 4° C. for 1 hour; P<0.05, T-test
Experimental: Male Wistar rats with a body weight of 200-250 g (our own breeding) were randomly divided into groups. The carrier (lactose) in the volume of 0.5 mL/100 g s.c. was applied to the negative and positive control group. Test substances and the standard were applied once daily over three days in the dose of 2 mg/kg in the volume of 0.5 mL/100 g of body weight. The standard was applied in the dose of 1 mg/kg, in the volume of 0.5 mL/100 g of body weight.
On day three, 2 hours after the last treatment, all animals, except for the negative control group, were subjected to cold stress at 4° C. for 1 hour. After the stress, the animals were anaesthetized with thiopental (Pliva d.d.) and blood from all animals was drawn on K2 EDTA into test tubes. Plasma samples were frozen at −70° C. Corticosterone levels were determined by fluorimetric method according to Silber. Thymuses were removed from animals and weighed, and their weights were compared with the negative and positive control.

Row | corticosterone plasma levels (Male Wistar rats) | weight of the thymus (Male Wistar rats) | SMILES | number of eosinophils in the lung rinse with respect to positive control (Male Balb/C mice) | affinity for glucocorticoid receptor (displacement of radioactive dexamethasone) [1]
1 | – | – | CC[C@H]1OC(=O)[C@H](C)[C@@H](O)[C@H](C)[C@@H](O)[C@](C)(O)C[C@@H](C)CN(CCCNC(=O)[C@H]2[C@H](C)CC3C4CCC5=CC(=O)C=C[C@]5(C)[C@@]4(F)[C@@H](O)C[C@@]32C)[C@H](C)[C@@H](O)[C@]1(C)O (stereo partly drawn) [Compound 2] | statistically significantly reduced | have the affinity for glucocorticoid receptor
2 | statistically significantly reduced | reduced the weight of the thymus | CCCC1O[C@@H]2C[C@H]3[C@@H]4CCC5=CC(=O)C=C[C@]5(C)[C@H]4[C@@H](O)C[C@]3(C)[C@]2(C(=O)CO)O1 (stereo partly drawn) [budesonide] | – | –
3 | statistically significantly reduced | reduced the weight of the thymus | C[C@@H]1C[C@H]2[C@@H]3C[C@H](F)C4=CC(=O)C=C[C@]4(C)[C@@]3(F)[C@@H](O)C[C@]2(C)[C@@]1(O)C(=O)SCF [fluticasone] | – | –

Reference: patent publication US7579334B2, “Compounds with anti-inflammatory activity” (GlaxoSmithKline Istrazivacki Centar Zagreb, priority 2003, dated 2009)
